# Measurements: US10647680B2, “Urea compound, preparation method therefor and medical use thereof” (Ancureall Pharmaceutical (Shanghai) Co., Ltd., priority 2016, dated 2020)
# Key:
# [1] = system: Karpas-299 (expressing NPM-ALK fusion gene); test: In vitro growth inhibition (GI50), Karpas-299; format: cell-based; conditions: Homo sapiens; Karpas-299, NPM-ALK
# Source text: (§1) Tumor cell line is an effective cell model for studying the inhibition of tumor cell growth or proliferation in vitro. In the present invention, a representative tumor cell line was selected to determine the cell growth inhibition activity of the present compound. All cell lines used were from ATCC, DSMZ, and the Cell Bank of the Chinese Academy of Sciences. Cell culture conditions and methods were in accordance with the requirements of each cell line. Cells were subcultured in vitro for no more than 3 passages each time, and as required, single-clone purification and identification of cell lines could be carried out.
# (§2) The cell culture media used were RPMI1640 (Gibco), MEM (Gibco), McCOY'S5A (Gibco), and IMDM (Gibco). The complete medium was prepared by supplement with 5˜20% fetal calf serum (Gibco), 1% double-antibiotics (10000 units/mL penicillin and 10000 units/mL), 2 mM glutamine or 1 mM sodium pyruvate, respectively.
# Human non-small cell lung cancer cell line NCI-H2228 (expressing EML4-ALK fusion gene, ATCC) and human anaplastic large cell lymphoma cell line Karpas-299 (expressing NPM-ALK fusion gene, ATCC) were cultured in complete medium comprising 1×RPMI1640 (10% FBS), respectively. Neuroblastoma cell line SH-SY5Y (expressing ALK F1174L mutant protein, Shanghai Cell Bank, Chinese Academy of Sciences) was cultured in MEM complete medium (1×MEM, 10% FBS, 1% NEAA, 1 mM sodium pyruvate).
# (§3) Adherent cells were digested with 0.25% pancreatin-EDTA (Gibco). The suspension cells were collected by centrifugation. The supernatant was discarded and the cell pellet was resuspended and counted. Different cell concentrations (5˜10×10^4 cells/mL) were prepared according to the growth cycle of each cell line and then seeded on a 96-well plate (Corning), 100 μL/well. The cells were incubated overnight at 37° C., 5% CO2. The compounds were added to the cells on the second day with 2 wells in parallel. The final concentration of organic solvent shall not exceed 1%. The cells were continually incubated for 3 to 5 days, and then subjected to MTT assay.
# (§4) The compound of the present invention and the control compound were dissolved in DMSO (Sigma) respectively, with the purity of more than 98%. The compound was stored in a concentration of 10 mM at −20° C. and diluted to 2- or 10-fold series prior to use.
# (§5) Dojindo CCK8 reagent kit was used as MTT assay. THERMO […] FC meter was used as microplate reader.
# (§6) For adherent cells, culture medium was removed and immediately replaced with the fresh prepared medium which contains 10% CCK8 reagent (100 μL/well). For the suspension cells, CCK8 was directly added to 10% of the final concentration. The cells were continually incubated for 1˜4 h. When a dark yellow color could be observed in the solvent control wells, the absorbance value at OD450 nm was measured and the cell growth rate was calculated according to the following formula: Cell Growth Rate (%)=100*(T−T0)/(C−T0) T=optical density of drug treatment cell well—optical density of blank control well; T0=optical density of cell well before drug treatment—optical density of blank control well; C=optical density of cell well of solvent control group—optical density of blank control well. The concentration value of 50% inhibition of cell growth (GI50) was calculated according to the drug concentration and cell growth rate curve. The experiment was independently repeated 1˜3 times, and subject to biological statistical analysis. 4. Experimental Results
# (§7) Tumor cell growth inhibition test was performed by selecting representative compounds (compounds 4, 11, 12, 16, 27, 68, 71, 77, 79, 89 and 116 of the present invention). The initial concentration of the compound was 5,000 nM, then it was serially diluted by 2-fold or 10-fold to 0.01 nM. The GI50 value of each test compound was calculated according to the GI50 assay and calculation method. The experiments were repeated 1 to 3 times, and data were subjected to biological statistical analysis.
# [2] = system: PC-9 (EGFR exon19 E746-A750 deletion); test: In vitro growth inhibition (GI50), PC-9; format: cell-based; conditions: Homo sapiens; PC-9, EGFR DelE746-A750
# Source text: as §1, §2
# Human epidermal cancer cell line A431 (EGFR WT, amplification and high expression, from Shanghai Cell Bank of Chinese Academy of Sciences and ATCC), human lung cancer cell line NCI-H292 (EGFR WT, purchased from Shanghai Cell Bank of Chinese Academy of Sciences), NSCLC cell lines PC-9 and HCC827 (EGFR exon19 E746-A750 deletion, two cell lines are sensitive to the first-generation EGFR PTK inhibitor), NSCLC cell line NCI-H1975 (EGFR L858R/T790M and the first-generation EGFR inhibitor resistance, ATCC) were cultured with 1×RPMI1640 complete medium (supplement with 10% FBS), respectively.
# as §3, §4, §5, §6
# as §7, with “The experiments were repeated 1 to 3 times, and data were subjected to biological statistical analysis.” left out
Structure (SMILES),GI50 [1] [nM],GI50 [2] [nM]
"COCCOc1ccc2c(c1)ncn2-c1ccc(NC(=O)Nc2cc(C(C)(C)C)n[nH]2)cc1 [Compound 77, 1-(5-tert-butyl-2H-pyrazol-3-yl)-3-{4-[5-(2-methoxyl-ethoxyl)-benzimidazol-1-yl]-phenyl}-urea]",> 2500,> 2500
"COc1ccc2c(c1)ncn2-c1ccc(NC(=O)Nc2cc(C(C)(C)C)n[nH]2)cc1 [Compound 71, 1-(5-tert-butyl-2H-pyrazol-3-yl)-3-[4-(5-methoxyl-benzimidazol-1-yl)-phenyl]-urea]",> 2500,> 2500
"CC(C)(C)c1cc(NC(=O)Nc2ccc(-n3cnc4cc(OCCN5CCOCC5)ccc43)cc2)no1 [Compound 16, 1-(5-tert-butyl-isoxazol-3-yl)-3-{4-[5-(2-morpholin-4-yl-ethoxyl)-benzimidazol-1-yl]-phenyl}-urea]",> 2500,> 2500
"CC(C)(C)c1cc(N)n(C(=O)Nc2ccc(-n3cnc4ccccc43)cc2)n1 [Compound 116, 5-amino-3-tert-butyl-pyrazol-1-carboxylic acid (4-benzimidazol-1-yl-phenyl)-amide]",> 2500,> 2500
"CC(C)(C)c1cc(NC(=O)Nc2ccc(-n3cnc4cc(OCCO)ccc43)cc2)no1 [Compound 11, 1-(5-tert-butyl-isoxazol-3-yl)-3-{4-[5-(2-hydroxy-ethoxyl)-benzimidazol-1-yl]-phenyl]-urea]",–,> 2500
"CC(C)(C)c1cc(NC(=O)Nc2ccc(-n3cnc4ccc(OCCN5CCOCC5)cc43)cc2)no1 [Compound 27, 1-(5-tert-butyl-isoxazol-3-yl)-3-{4-[6-(2morpholin-4-yl-ethoxyl)-benzimidazol-1-yl]-phenyl}-urea]",–,> 2500

# More lines, now with the values ahead:
GI50 [1] [nM],GI50 [2] [nM],Structure (SMILES)
> 2500,> 2500,"CC(C)(C)c1cc(NC(=O)Nc2ccc(-n3cnc4cc(OCCO)ccc43)cc2)[nH]n1 [Compound 79, 1-(5-tert-butyl-2H-pyrazol-3-yl)-3-{4-[5-(2-hydroxy-ethoxyl)-benzimidazol-1-yl]-phenyl]urea]"
> 2500,> 2500,"CC(C)(C)c1cc(NC(=O)Nc2ccc(-n3cnc4cc(OCCN5CCOCC5)ccc43)cc2)[nH]n1 [Compound 89, 1-(5-tert-butyl-2H-pyrazol-3-yl)-3-{4-[5-(2-morpholin-4-yl-ethoxyl)-benzimidazol-1-yl]-phenyl}-urea]"
–,> 2500,"CC(C)(C)c1cc(NC(=O)Nc2ccc(-n3cnc4cc(O)ccc43)cc2)no1 [Compound 4, 1-(5-tert-butyl-isoxazol-3-yl)-3-[4-(5-hydroxy-benzimidazol-1-yl)-phenyl]-urea]"
1880,> 2500,"CC(C)(C)c1cc(NC(=O)Nc2ccc(-n3cnc4ccccc43)cc2)[nH]n1 [Compound 68, 1-(4-benzimidazol-1-yl-phenyl)-3-(5-tert-butyl-2H-pyrazol-3-yl)-urea]"
